We go through two compounds from patent US20160281095A1, “Alkynyl-Derivatized Cap Analogs, Preparation and Uses Thereof” (LIFE TECHNOLOGIES CORPORATION, priority 2011, published 2016).

One experiment deals with T7 RNA polymerase (Escherichia phage T7, UniProt P00573). The following applies: T7 RNA polymerase transcription, pTri β actin template, cap analog 1.6 mM, GTP 0.4 mM, 37° C. 2 h, 20% dPAGE gel.
The subject of the next experiment is HeLa cells. Description: Translation efficiency: luciferase activity after transfection of capped luciferase mRNA poly(A). Type of experiment: cell-based. The conditions noted are these: luciferase mRNA poly(A) transfected into HeLa cells, 16 h, versus m^7GpppG-capped mRNA. As to the method:
Alkynyl-derivatized capped mRNAs were produced in vitro for use in translation assays. […] In order to hydrolyze the remaining plasmid DNA, 1 μL of TURBO DNase was added to the reaction mixture and further incubated at 37° C. for 15 min. Purification of transcription reactions was done by using the MEGAclear™ kit (Life Technologies Corp) as per manufacturer's protocol. The in vitro transcription results in a mixture of 5′analog-capped and uncapped mRNAs.
To determine the translational efficiency, the luciferase mRNA poly(A) product generated from the transcription reaction using a standard cap and the luciferase mRNA poly(A) product generated as described above using the alkyne-derivatized cap 7 were transfected separately into HeLa cells.
The HeLa cells (60,000/well in 24 well-plates) were seeded at least 12 h before transfection in growth medium without antibiotics. Capped RNA was prepared by mixing 600 ng of RNA, 2.5 μL of TFX-20™ (Promega), and 300 μL of serum-free DMEM in polystyrene tubes and incubated for 15 min at room temperature. […] The plate was mixed carefully to disrupt the cells and 10 μL of cell lysates from each transfection reactions were mixed with 100 μL of luciferase substrate (Promega) and measured immediately on a POLARstar OPTIMA Luminometer (BMG Labtech) in 96-well plates. […]

Sequence of T7 RNA polymerase (P00573 whole entry): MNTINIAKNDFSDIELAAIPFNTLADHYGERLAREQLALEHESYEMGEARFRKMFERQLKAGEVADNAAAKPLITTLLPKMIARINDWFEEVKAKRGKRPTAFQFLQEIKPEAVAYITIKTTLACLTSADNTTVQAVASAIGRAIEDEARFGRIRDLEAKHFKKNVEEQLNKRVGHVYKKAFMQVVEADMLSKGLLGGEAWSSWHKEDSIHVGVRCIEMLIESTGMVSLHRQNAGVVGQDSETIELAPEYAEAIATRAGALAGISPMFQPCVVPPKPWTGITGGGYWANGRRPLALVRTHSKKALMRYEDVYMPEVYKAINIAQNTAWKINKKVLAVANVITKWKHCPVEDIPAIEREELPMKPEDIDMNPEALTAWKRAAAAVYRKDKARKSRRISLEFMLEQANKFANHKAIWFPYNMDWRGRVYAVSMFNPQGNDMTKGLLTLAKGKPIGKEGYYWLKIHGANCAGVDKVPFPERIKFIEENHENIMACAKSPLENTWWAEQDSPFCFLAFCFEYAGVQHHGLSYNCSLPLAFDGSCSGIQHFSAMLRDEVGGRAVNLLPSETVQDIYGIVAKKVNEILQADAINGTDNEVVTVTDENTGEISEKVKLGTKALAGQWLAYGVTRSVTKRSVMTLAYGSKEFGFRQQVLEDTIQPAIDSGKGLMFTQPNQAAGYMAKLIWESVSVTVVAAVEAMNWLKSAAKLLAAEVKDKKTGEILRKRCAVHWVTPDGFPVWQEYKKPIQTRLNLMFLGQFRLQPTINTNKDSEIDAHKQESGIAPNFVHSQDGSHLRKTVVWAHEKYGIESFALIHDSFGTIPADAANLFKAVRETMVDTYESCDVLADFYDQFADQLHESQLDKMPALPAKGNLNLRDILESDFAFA
Procedure for T7 RNA polymerase: The gel shift assay was performed by using a pTri β actin template and the IVT reaction used linearized AmbLuc poly(A) DNA template and a [sequence] kit (Life Technologies Corporation). Radiation in the gel bands of interest was quantified by a phosphorimager (GE Healthcare).
To analyze capping efficiency during transcription a Gel Shift Assay was used. The Gel shift assay was performed using the MAXISCRIPT kit (Life Technologies Corporation) by following the manufacturer's protocol. A typical 20 μL T7 RNA polymerase transcription reaction contained the following reagents at the final concentrations indicated: linearized pTri β actin vector template, 0.5 μg; ATP, 2 mM; GTP, 0.4 mM; compound standard cap analog and alkynyl-derivatized cap analog 7, 1.6 mM each in separate reactions; 10× reaction buffer, 4 μl; T7 RNA polymerase, 50 units/μL; (α-^32P) ATP, 800 (Ci/mmol); and DEPC water. The control reaction was a normal in vitro transcription reaction, in which no cap analog was added. […] Radiation in the gel bands of interest was quantified by a phosphoroimager (GE Healthcare).
Due to the omission of CTP and UTP, only the 5′ end was transcribed by T7 RNA polymerase, producing a transcript of six nucleotides in length. The resulting transcription products were analyzed by 20% denaturing polyacrylamide/8 M urea gel.

Consider `C#CCO[C@H]1[C@@H](O)[C@H](n2c[n+](C)c3c(=O)[nH]c(N)nc32)O[C@@H]1COP(=O)(O)OP(=O)(O)OP(=O)(O)OC[C@H]1O[C@@H](n2cnc3c(=O)[nH]c(N)nc32)[C@H](O)[C@@H]1O` [compound 7, m^7,3′-O-propargylG[5′]ppp[5′]G], for which, at T7 RNA polymerase, the capping efficiency stood at 60%. For the same compound, the “translational efficiency (luciferase signal) relative to mRNA capped with the standard cap analog” value in the experiment with HeLa cells is reported as “up to 3 fold”; in the experiment on HeLa cells (listed as 3′-O-propargyl substituted cap analog), 3.1 fold.

Compound `Cn1c[n+]([C@@H]2O[C@H](COP(=O)(O)OP(=O)(O)OP(=O)(O)OC[C@H]3O[C@@H](n4cnc5c(=O)[nH]c(N)nc54)[C@H](O)[C@@H]3O)[C@@H](O)[C@H]2O)c2nc(N)[nH]c(=O)c21` [standard cap, m^7G(5′)ppp(5′)G, reference compound] returned a capping efficiency on T7 RNA polymerase of 73%.
